Reference: patent EP4603105A1, “PHARMACEUTICAL COMPOSITION CONTAINING CYCLIC COMPOUND HAVING SELECTIVE KRAS INHIBITORY EFFECT AGAINST HRAS AND NRAS” (CHUGAI SEIYAKU KABUSHIKI KAISHA, priority 2022, dated 2024)
Where two headings read alike, the source gives them in different places.

What was measured:
[1] = tested on: human lung cancer strain NCI-H441; assay: NCI-H441 cell proliferation inhibitory activity (CellTiter-Glo, 4 days); format: cell-based; conditions: read-out: NCl-H441 IC50
In short: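 Proliferation was scored by […] measured after the reagent was added to cultures kept at 37°C in 5% carbon dioxide.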

[2] = molecular target: GDP-bound NRAS wild-type protein (Homo sapiens, UniProt P01111); assay: Binding to NRAS by surface plasmon resonance (SPR), KD and KD ratio to KRAS
In short: (§1)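 Compound binding is evaluated by SPR single-cycle kinetics, with concentrations added intermittently from low to high for 75 s each. Target surfaces carry GDP-loaded biotinylated Avi-RAS at about 100–300 RU, regenerated after each cycle; temperature 30°C. A 1:1 binding model gives KD.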

[3] = molecular target: GDP-bound KRAS wild-type protein (Homo sapiens, UniProt P01116); assay: Binding to KRAS by surface plasmon resonance (SPR), dissociation constant KD
In short: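 Captured GDP-RAS (~100–300 RU) was exposed to increasing compound concentrations, 75 s per step, in running buffer with 10 µM GDP, 10 mM MgCl2 and 4% DMSO at pH 7.4.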

HRAS wild-type protein = HRAS wild-type protein (Homo sapiens, UniProt P01112); assay: Binding to HRAS by surface plasmon resonance (SPR), KD and KD ratio to KRAS
In short: as §1

[4] = 50% proliferation inhibitory concentration, four days
[5] = ratio of KD with respect to GDP-bound NRAS wild-type protein to KD with respect to KRAS
[6] = Single Cycle Kinetics, 1:1 binding model
[7] = ratio of KD with respect to HRAS wild-type protein to KD with respect to KRAS
[8] = ratio of KD for GDP-bound NRAS wild-type protein to KD for KRAS
[9] = ratio of KD for HRAS wild-type protein to KD for KRAS

GDP-bound NRAS wild-type protein, sequence (P01111 whole entry): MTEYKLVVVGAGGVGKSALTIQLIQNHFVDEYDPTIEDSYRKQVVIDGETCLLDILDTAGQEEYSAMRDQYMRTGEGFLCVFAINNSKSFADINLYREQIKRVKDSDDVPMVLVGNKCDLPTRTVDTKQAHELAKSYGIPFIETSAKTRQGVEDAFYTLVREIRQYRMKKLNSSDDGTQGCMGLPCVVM
HRAS wild-type protein, sequence (P01112 whole entry): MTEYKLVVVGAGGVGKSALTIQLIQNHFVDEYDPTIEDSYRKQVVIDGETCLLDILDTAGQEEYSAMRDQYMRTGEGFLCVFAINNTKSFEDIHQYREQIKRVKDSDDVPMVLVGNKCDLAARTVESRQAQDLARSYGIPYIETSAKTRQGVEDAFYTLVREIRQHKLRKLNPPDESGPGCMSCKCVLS
GDP-bound KRAS wild-type protein, sequence (P01116 1-188 isoform P01116-2): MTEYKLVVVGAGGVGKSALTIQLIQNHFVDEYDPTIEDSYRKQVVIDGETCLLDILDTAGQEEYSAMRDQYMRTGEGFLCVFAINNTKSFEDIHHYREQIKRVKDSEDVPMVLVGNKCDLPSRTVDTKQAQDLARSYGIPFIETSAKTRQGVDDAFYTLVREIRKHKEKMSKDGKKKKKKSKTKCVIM

IC50 [1, 4] [nM]	Kd [3, 6] [nM]	IC50 ([1]; NCI-H441 cells, 4 days) [nM]	Kd ([3]; 1:1 binding model) [nM]	Kd ([3]; Single Cycle Kinetics) [nM]	Structure (SMILES)	NRAS /KRAS [2, 5]	HRAS /KRAS (HRAS wild-type protein; [7])	NRAS /KRAS [2, 8]	HRAS /KRAS (HRAS wild-type protein; [9])
22.2	0.2				CCO[C@@H]1C[C@H]2C(=O)NC3(CCC3)C(=O)N(C)[C@@H](C3CCCC3)C(=O)N(C)[C@H](C(=O)N(C)C)CC(=O)N(C)[C@@H](CC3CC3)C(=O)N[C@@H]([C@@H](C)CC)C(=O)N(C)CC(=O)N(C)[C@H]3C/C=C\CCN(C3=O)[C@@H](Cc3ccc(C(F)(F)F)cc3)C(=O)N(C)CC(=O)N[C@@H](CCc3ccc(Cl)c(Cl)c3)C(=O)N2C1 [PP1253]	A (a compound having 10 or more and less than 20 is denoted as A)	A (a compound having 10 or more and less than 20 is denoted as A)		
		54.5	4		C#CCN1CC(=O)N(C)[C@H]2C/C=C\CCN(C2=O)[C@@H](Cc2ccc(C)cc2)C(=O)N(C)CC(=O)N[C@@H](CCc2ccc(C(F)(F)F)c(Cl)c2)C(=O)N2C[C@H](OCC)C[C@H]2C(=O)NC2(CC(C)(C)C2)C(=O)N(C)[C@@H](C2CCCC2)C(=O)N(C)[C@H](C(=O)N(C)C)CC(=O)N(C)[C@@H](CCC)C(=O)N[C@@H](CC(C)C)C1=O [PP2526]			A (a compound having 10 or more and less than 20 is denoted as A)	B (a compound having 3 or more and less than 10 is denoted as B)
		196		5	C#CC[C@H]1C(=O)N[C@@H]([C@@H](C)CC)C(=O)N2CCCCC[C@H]2C(=O)N(C)[C@H]2C/C=C\CCN(C2=O)[C@@H](Cc2ccc(C)cc2)C(=O)N(C)CC(=O)N[C@@H](CCc2ccc(C(F)(F)F)c(OC)c2)C(=O)N2C[C@H](OCC)C[C@H]2C(=O)N(C)C2(CCC2)C(=O)N(C)[C@@H](C2CCCC2)C(=O)N(C)[C@H](C(=O)N(C)C)CC(=O)N1C [PP3267]			A (a compound having 10 or more and less than 20 is denoted as A)	B (a compound having 3 or more and less than 10 is denoted as B)
27.8	0.26				CCO[C@@H]1C[C@H]2C(=O)NC3(CCC3)C(=O)N(C)[C@@H](C3CCCC3)C(=O)N(C)[C@H](C(=O)N3CCOCC3)CC(=O)N(C)[C@@H](Cc3cccs3)C(=O)N[C@@H]([C@@H](C)CC)C(=O)N(C)CC(=O)N(C)[C@H]3CCCCCN(C3=O)[C@@H](Cc3ccc(F)cc3)C(=O)N(C)CC(=O)N[C@@H](CCc3cc(F)c(C(F)(F)F)c(F)c3)C(=O)N2C1 [PP1183]	B (a compound having 3 or more and less than 10 is denoted as B)	B (a compound having 3 or more and less than 10 is denoted as B)		
		144	4.1		CCC[C@H]1C(=O)N[C@@H](CC(C)C)C(=O)N(C2CC2)CC(=O)N(C)[C@H]2C/C=C\CCN(C2=O)[C@@H](Cc2ccc(C)cc2)C(=O)N(C)CC(=O)N[C@@H](CCc2cc(F)c(C(F)(F)F)c(F)c2)C(=O)N2C[C@H](OCC)C[C@H]2C(=O)NC2(CCC2)C(=O)N(C)[C@@H](C2CCCC2)C(=O)N(C)[C@H](C(=O)N(C)C)CC(=O)N1C [PP2532]			A (a compound having 10 or more and less than 20 is denoted as A)	B (a compound having 3 or more and less than 10 is denoted as B)
16.1	0.066				CCO[C@@H]1C[C@H]2C(=O)NC3(CCC3)C(=O)N(C)[C@@H](C3CCCC3)C(=O)N(C)[C@H](C(=O)N(C)C)CC(=O)N(C)[C@@H](C)C(=O)N[C@@H]([C@@H](C)CC)C(=O)N(C)CC(=O)N(C)[C@H]3CCCCCN(C3=O)[C@@H](Cc3ccc(F)cc3)C(=O)N(C)CC(=O)N[C@@H](CCc3cc(F)c(C(F)(F)F)c(F)c3)C(=O)N2C1 [PP1189]	B (a compound having 3 or more and less than 10 is denoted as B)	B (a compound having 3 or more and less than 10 is denoted as B)		
		3.3	0.79		CCC[C@H]1C(=O)N[C@@H]([C@@H](C)CC)C(=O)N(C2CC2)CC(=O)N(C)[C@H]2C/C=C\CCN(C2=O)[C@@H](CC2CCCCC2)C(=O)N(C)CC(=O)N[C@@H](CCc2ccc(C(F)(F)F)c(OC)c2)C(=O)N2C[C@@H](C)C[C@H]2C(=O)N(C)C2(CCC2)C(=O)N(C)[C@@H](C2CCCC2)C(=O)N(C)[C@H](C(=O)N(C)C)CC(=O)N1C [PP2372]			A (a compound having 10 or more and less than 20 is denoted as A)	B (a compound having 3 or more and less than 10 is denoted as B)
		12.9		1.4	CCO[C@@H]1C[C@H]2C(=O)OC3(CCC3)C(=O)N(C)[C@@H](C3CCCC3)C(=O)N(C)[C@H](C(=O)N(C)C)CC(=O)N(C)[C@@H]([C@H](C)OC)C(=O)N[C@@H]([C@@H](C)CC)C(=O)N(C3CC3)CC(=O)N(C)[C@H]3C/C=C\CCN(C3=O)[C@@H](Cc3ccc(C)cc3)C(=O)N(C)CC(=O)N[C@@H](CCc3ccc(C(F)(F)F)c(OC)c3)C(=O)N2C1 [PP3396]			A (a compound having 10 or more and less than 20 is denoted as A)	B (a compound having 3 or more and less than 10 is denoted as B)
14.1	0.17				CCO[C@@H]1C[C@H]2C(=O)NC3(CCC3)C(=O)N(C)[C@@H](C3CCCC3)C(=O)N(C)[C@H](C(=O)N(C)C)CC(=O)N(C)[C@@H](CC)C(=O)N[C@@H]([C@@H](C)CC)C(=O)N(C)CC(=O)N(C)[C@H]3C/C=C\CCN(C3=O)[C@@H](Cc3ccc(C(F)(F)F)cc3)C(=O)N(C)CC(=O)N[C@@H](CCc3ccc(C(F)(F)F)c(C)c3)C(=O)N2C1 [PP1265]	A (a compound having 10 or more and less than 20 is denoted as A)	B (a compound having 3 or more and less than 10 is denoted as B)		
		2.1	0.85		CCC[C@H]1C(=O)N[C@@H]([C@@H](C)CC)C(=O)N2CCC[C@H]2C(=O)N(C)[C@H]2C/C=C\CCN(C2=O)[C@@H](CC2CCC(F)(F)CC2)C(=O)N(C)CC(=O)N[C@@H](CCc2ccc(C(F)(F)F)c(OC)c2)C(=O)N2C[C@@H](C)C[C@H]2C(=O)N(C)C2(CCC2)C(=O)N(C)[C@@H](C2CCCC2)C(=O)N(C)[C@H](C(=O)N(C)C)CC(=O)N1C [PP2380]			A (a compound having 10 or more and less than 20 is denoted as A)	A (a compound having 10 or more and less than 20 is denoted as A)
		13		0.36	CCCO[C@@H]1C[C@H]2C(=O)NC3(CC(C)(C)C3)C(=O)N(C)[C@@H](C3CCCC3)C(=O)N(C)[C@H](C(=O)N(C)CC)CC(=O)N(C)[C@@H](COCC)C(=O)N[C@@H]([C@@H](C)CC)C(=O)N3C[C@@H](F)C[C@H]3C(=O)N(C)[C@H]3C/C=C\CCN(C3=O)[C@@H](Cc3ccc(C(F)(F)F)cc3)C(=O)N(C)CC(=O)N[C@@H](CCc3ccc(C(F)(F)F)c(OC)c3)C(=O)N2C1 [PP3417]			A (a compound having 10 or more and less than 20 is denoted as A)	A (a compound having 10 or more and less than 20 is denoted as A)
		17.2		0.36	CCC[C@H]1C(=O)N[C@@H]([C@@H](C)CC)C(=O)N(C)CC(=O)N(C)[C@H]2C/C=C\CCN(C2=O)[C@@H](Cc2ccc(C)cc2)C(=O)N(C)CC(=O)N[C@@H](CCc2ccc(C(F)(F)F)c(Cl)c2)C(=O)N2CC3(CC3)C[C@H]2C(=O)NC2(CCC2)C(=O)N(C)[C@@H]([C@@H](C)CC)C(=O)N(C)[C@H](C(=O)N(C)C)CC(=O)N1C [PP3426]			A (a compound having 10 or more and less than 20 is denoted as A)	A (a compound having 10 or more and less than 20 is denoted as A)
		103	0.91		CCC[C@H]1C(=O)N[C@@H]([C@@H](C)CC)C(=O)N(C2CC2)CC(=O)N(C)[C@H]2C/C=C\CCN(C2=O)[C@@H](Cc2ccc(C)cc2)C(=O)N(C)CC(=O)N[C@@H](CCc2ccc(Cl)c(Cl)c2)C(=O)N2C[C@H](OCC)C[C@H]2C(=O)NC2(CC(C)(C)C2)C(=O)N(C)[C@@H](C2CCCC2)C(=O)N(C)[C@H](C(=O)N(C)C)CC(=O)N1C [PP2559]			A (a compound having 10 or more and less than 20 is denoted as A)	A (a compound having 10 or more and less than 20 is denoted as A)
3.7	0.037				CCO[C@@H]1C[C@H]2C(=O)NC3(CCCC3)C(=O)N(C)[C@@H](C3CCCC3)C(=O)N(C)[C@H](C(=O)N(C)C)CC(=O)N(C)[C@@H](CC3CC3)C(=O)N[C@@H]([C@@H](C)CC)C(=O)N(C)CC(=O)N(C)[C@H]3C[C@@H](C)[C@@H](C)CN(C3=O)[C@@H](Cc3ccc(C(F)(F)F)cc3)C(=O)N(C)CC(=O)N[C@@H](CCc3ccc(C(F)(F)F)c(Cl)c3)C(=O)N2C1 [PP1362]	A (a compound having 10 or more and less than 20 is denoted as A)	B (a compound having 3 or more and less than 10 is denoted as B)		
		60.1	0.5		CCOC[C@H]1C(=O)N[C@@H]([C@@H](C)CC)C(=O)N(C)CC(=O)N(C)[C@H]2C/C=C\CCN(C2=O)[C@@H](Cc2ccc(C)cc2)C(=O)N(C)CC(=O)N[C@@H](CCc2cc(F)c(C(F)(F)F)c(F)c2)C(=O)N2C[C@@H](C)C[C@H]2C(=O)NC2(CC(C)(C)C2)C(=O)N(C)[C@@H](C2CCCC2)C(=O)N(C)[C@H](C(=O)N(CC)CC)CC(=O)N1C [PP2407]			A (a compound having 10 or more and less than 20 is denoted as A)	A (a compound having 10 or more and less than 20 is denoted as A)
